Assay [1] has as its target T1, human AXL cytoplasmic domain (Homo sapiens, UniProt P30530).
T1 construct: human AXL cytoplasmic domain (Thermo Fisher A31515); purchased Thermo Fisher A31515
T1 sequence (P30530 473-894 limits assumed): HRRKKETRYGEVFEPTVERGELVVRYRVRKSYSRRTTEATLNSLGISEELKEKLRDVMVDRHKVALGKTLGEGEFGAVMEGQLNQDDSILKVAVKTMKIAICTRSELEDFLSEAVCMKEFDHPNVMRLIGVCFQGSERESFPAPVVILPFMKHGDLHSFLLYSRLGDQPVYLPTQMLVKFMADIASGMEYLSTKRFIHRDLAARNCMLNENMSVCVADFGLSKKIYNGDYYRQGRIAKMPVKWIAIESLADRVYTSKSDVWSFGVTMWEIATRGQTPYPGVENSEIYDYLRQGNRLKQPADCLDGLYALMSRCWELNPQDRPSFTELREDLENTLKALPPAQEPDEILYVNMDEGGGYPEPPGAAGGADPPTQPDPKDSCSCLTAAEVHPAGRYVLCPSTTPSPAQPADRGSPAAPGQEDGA
The assay is described as follows: Assay 1b AXL HTRF KinEASE-TK assay. Type of assay: biochemical. On the procedure: Assay 1b—AXL HTRF KinEASE-TK Assay
Compound inhibition of human AXL cytoplasmic domain (Thermo Fisher A31515) enzymatic activity was tested via the HTRF KinEASE-tyrosine kinase (TK) kit (Cisbio 62TK0PEC). Experiments were performed in 20 μl enzymatic buffer (Cisbio 62EZBFDD) supplemented with 5 mM MgCl2, 1 mM MnCl2, 1 mM DTT, 50 nM SEB (Cisbio, 61SEBALB), with 5 nM of AXL and the test compounds of interest. […] The enzymatic reaction was carried out for 30 min at room temperature. 10 μL TK Antibody-Cryptate/Streptavidin-XL665 (Cisbio 610SAXLG) was then added for 60 min, including EDTA containing detection buffer (Cisbio 62SDBRDF) to stop the reaction. The plate was read on a BMG Pherastar FSX using a HTRF 337/620/665 optical module to excite the terbium donor at 337 nm, and record donor emission at 620 nm and acceptor fluorophore emission at 665 nm. From this the FRET ratio (acceptor 665 nm/donor 620 nm) for each data point was calculated. […] Competition curves were then fit to a 4 parameter logistic equation including a variable slope factor to determine the IC50 (compound concentration that inhibits 50% of AXL activity).
(In TR-FRET formats the signal depends on donor and acceptor labels being close together.)

The target in assay [2] is T2, Ba/F3 Pro B-cell line expressing TEL-human MERTK fusion domain (Homo sapiens, UniProt Q12866).
T2 sequence (Q12866 587-858 limits assumed): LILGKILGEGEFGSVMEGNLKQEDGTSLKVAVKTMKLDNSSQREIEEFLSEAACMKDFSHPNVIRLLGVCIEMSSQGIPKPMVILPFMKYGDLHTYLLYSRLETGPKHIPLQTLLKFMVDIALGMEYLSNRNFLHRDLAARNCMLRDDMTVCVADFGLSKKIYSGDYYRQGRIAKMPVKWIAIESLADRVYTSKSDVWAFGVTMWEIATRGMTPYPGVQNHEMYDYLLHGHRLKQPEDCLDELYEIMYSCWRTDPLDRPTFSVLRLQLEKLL
Type of assay: cell-based. Particulars: cell survival, 48 h, CellTiter-Glo; read-out: TEL-MERTK Ba/F3 IC50. On the procedure:
(§1) Assay 5—Ba/F3 Cell Survival Assays.
(§2) The inhibitory potencies of compounds were assessed in a Ba/F3 cell survival assay, using the Ba/F3 Pro B-cell line, recombinantly expressing a BCR-human AXL kinase domain fusion protein (pACD320/AXL, Advanced Cellular Dynamics Inc), TEL-human MERTK fusion domain (pACD1000/MERTK, Advanced Cellular Dynamics Inc), TEL-human Tyro3 fusion domain (pACD1000/TYRO3, Advanced Cellular Dynamics Inc), or control TEL-none (ACD320, Advanced Cellular Dynamics Inc) BRC-none constructs (ACD1000, Advanced Cellular Dynamics Inc). 10 ng/mL recombinant murine IL3 (R&D, 403-ML-010) was included in the media when propagating negative control TEL-none or BCR-none lines only. […] The final assay DMSO concentration was 0.25%. Compound incubations were conducted for 48 h at 37° C./5% CO2, after which cell plate was equilibrated at room temperature for 20 minutes prior to assessing viability. 15 μl of Promega CellTiter-Glo reagent (G7572) was added to each well for 2 min on an orbital shaker to induce cell lysis.
(§3) The plate was then equilibrated for 5 min at room temperature and luminescence read on a BMG Pherastar FSX using the LUM plus optic module. […] Competition curves were then fit to a 4 parameter logistic equation including a variable slope factor to determine the IC50 (compound concentration causing a half-maximal inhibition of cell survival).

Assay [3] has as its target T3, Ba/F3 Pro B-cell line expressing BCR-human AXL kinase domain fusion protein (Homo sapiens, UniProt P30530).
T3 construct: P11274 (Breakpoint cluster region protein)
T3 sequence (P30530 536-807 limits assumed): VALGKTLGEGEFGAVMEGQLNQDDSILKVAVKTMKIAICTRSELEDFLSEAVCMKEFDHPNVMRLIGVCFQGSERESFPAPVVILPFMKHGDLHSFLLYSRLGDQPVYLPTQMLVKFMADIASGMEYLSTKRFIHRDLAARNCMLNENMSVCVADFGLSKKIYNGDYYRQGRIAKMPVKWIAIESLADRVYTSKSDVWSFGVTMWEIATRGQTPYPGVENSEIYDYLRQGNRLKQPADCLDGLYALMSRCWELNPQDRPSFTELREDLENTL
The assay is described as follows: Assay 5 Ba/F3 cell survival assay, BCR-Axl. Type of assay: cell-based. Particulars: read-out: BCR-Axl Ba/F3 IC50, 48 h, CellTiter-Glo. Here is the method: as §1, §2, §3
(ATP-based viability assays read luminescence as a measure of living cells.)

For assay [4], the target named is T4, human MERTK cytoplasmic domain (Homo sapiens, UniProt Q12866).
T4 construct: human MERTK cytoplasmic domain (Carna Biosciences 08-108); purchased Carna Biosciences 08-108
T4 sequence (Q12866 527-999): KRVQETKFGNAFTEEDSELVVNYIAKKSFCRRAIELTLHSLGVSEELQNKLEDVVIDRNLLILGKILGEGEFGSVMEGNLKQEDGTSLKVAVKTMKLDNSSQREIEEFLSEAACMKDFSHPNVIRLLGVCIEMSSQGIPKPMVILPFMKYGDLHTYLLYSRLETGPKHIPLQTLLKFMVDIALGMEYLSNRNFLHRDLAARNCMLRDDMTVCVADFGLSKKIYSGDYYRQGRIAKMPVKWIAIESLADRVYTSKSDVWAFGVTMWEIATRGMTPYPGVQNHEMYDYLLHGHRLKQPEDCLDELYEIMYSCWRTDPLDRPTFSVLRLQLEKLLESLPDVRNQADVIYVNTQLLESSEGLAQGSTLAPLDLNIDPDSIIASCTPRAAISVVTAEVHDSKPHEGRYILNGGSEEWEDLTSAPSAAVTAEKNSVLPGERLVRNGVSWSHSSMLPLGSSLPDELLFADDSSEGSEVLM
The assay is described as follows: biochemical. The following applies: 30 uM ATP; read-out: Assay 1a Mer IC50 30 uM ATP. Here is the method: Assay 1a—MERTK HTRF KinEASE-TK Assay
The enzymatic reaction was carried out for 30 min at room temperature. 10 μL TK Antibody-Cryptate/Streptavidin-XL665 (Cisbio 610SAXLG) was then added for 60 min, including EDTA containing detection buffer (Cisbio 62SDBRDF) to stop the reaction.

Assay [5] concerns the target T5, Ba/F3 Pro B-cell line expressing TEL-human Tyro3 fusion domain (Homo sapiens, UniProt Q06418).
T5 sequence (Q06418 518-790 limits assumed): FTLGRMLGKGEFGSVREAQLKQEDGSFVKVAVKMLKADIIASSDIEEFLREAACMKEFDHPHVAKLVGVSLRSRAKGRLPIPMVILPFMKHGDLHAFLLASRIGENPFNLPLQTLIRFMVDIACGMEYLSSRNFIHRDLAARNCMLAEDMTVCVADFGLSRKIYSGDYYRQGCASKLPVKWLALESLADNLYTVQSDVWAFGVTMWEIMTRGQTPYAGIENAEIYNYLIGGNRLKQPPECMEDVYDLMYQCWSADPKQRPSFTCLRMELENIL
Type of assay: cell-based. The following applies: cell survival, 48 h, CellTiter-Glo. On the procedure:
as §1
as §2, with “only. Cells were maintained in RMPI 1640 (Corning 15-040-CV) culture media containing 10% heat inactivated semi-synthetic FBS (RMBIO FGR-BBT), 2 mM L-Glutamine (Sigma, G7513), 100 IU/mL Penicillin-[…] Streptomycin (Sigma, P4333), and 500 ng/mL Puromycin (Sigma, P8833). Experiments were performed in 50 μl growth media, including the test compounds of interest, and dispensing 5000 cells/well in logarithmic-phase growth into a 384 well white Optiplate (Perkin Elmer 6007299).” for “only.”
The plate was then equilibrated for 5 min at room temperature and luminescence read on a BMG Pherastar FSX using the LUM plus optic module. Data were normalised to measurements in the absence of competing compound (0% inhibition). Competition curves were then fit to a 4 parameter logistic equation including a variable slope factor to determine the IC50 (compound concentration causing a half-maximal inhibition of cell survival).

From patent US20230203029A1 (priority 2020, published 2023) come the findings set out here.

Regarding `CN1CCC(NC(=O)c2cc3c(Oc4ccc(NC(=O)c5cccn(-c6ccc(F)cc6)c5=O)cc4)ccnc3cn2)CC1` [Example 8.1, 4-[4-[[1-(4-fluorophenyl)-2-oxo-pyridine-3-carbonyl]amino]phenoxy]-N-(1-methyl-4-piperidyl)-1,7-naphthyridine-6-carboxamide], the IC50 came out at 28 nM in assay [1]; 17 nM in assay [2]; 7 nM in assay [3]; 4 nM in assay [4]; 48 nM in assay [5].

As for `CC(C)n1cc(C(=O)Nc2ccc(Oc3ccnc4cnc(C(=O)NC5CCN(C)CC5)cc34)cc2)c(=O)n(-c2ccc(F)cc2)c1=O` [Example 8.2, 4-[4-[[3-(4-fluorophenyl)-1-isopropyl-2,4-dioxo-pyrimidine-5-carbonyl]amino]phenoxy]-N-(1-methyl-4-piperidyl)-1,7-naphthyridine-6-carboxamide], the IC50 in assay [1] was 10 nM; in assay [2] it was 30 nM; in assay [3] it was 3 nM; in assay [4], 10 nM; in assay [5] it was 120 nM.

With `CC(C)n1cc(C(=O)Nc2ccc(Oc3ccnc4cnc(C(=O)NC5CCN(C)CC5)cc34)cc2)c(=O)n(-c2ccc(F)cn2)c1=O` [Example 9, 4-[4-[[3-(5-Fluoro-2-pyridyl)-1-isopropyl-2,4-dioxo-pyrimidine-5-carbonyl]amino]phenoxy]-N-(1-methyl-4-piperidyl)-1,7-naphthyridine-6-carboxamide], the IC50 was determined as 11 nM in assay [1]; 85 nM in assay [2]; 6 nM in assay [3]; 14 nM in assay [4]; 252 nM in assay [5].

As for `O=C(Nc1ccc(Oc2ccnc3cnc(C4CCN(C5COC5)CC4)cc23)cn1)c1cccn(-c2ccc(F)cc2)c1=O` [Example 16.3, 1-(4-fluorophenyl)-N-[5-[[6-[1-(oxetan-3-yl)-4-piperidyl]-1,7-naphthyridin-4-yl]oxy]-2-pyridyl]-2-oxo-pyridine-3-carboxamide], the IC50 was determined as 3 nM in assay [1], 14 nM in assay [2], 1 nM in assay [4] and 271 nM in assay [5].

Consider `CN1CCC(C(=O)Nc2cc3c(Oc4ccc(NC(=O)c5cccn(-c6ccc(F)cc6)c5=O)nc4)ccnc3cn2)C1` (centres unmarked) [Example 18, 1-(4-Fluorophenyl)-N-[5-[[6-[(1-methylpyrrolidine-3-carbonyl)amino]-1,7-naphthyridin-4-yl]oxy]-2-pyridyl]-2-oxo-pyridine-3-carboxamide], for which the IC50 in assay [1] is 34 nM; in assay [2] it was 3 nM; in assay [4], 2 nM; in assay [5], 165 nM.

With `CN1CCC(C(=O)Nc2cc3c(Oc4ccc(NC(=O)c5cccn(-c6ccc(F)cc6)c5=O)nc4)ccnc3cn2)CC1` [Example 18.1, 1-(4-fluorophenyl)-N-[5-[[6-[(1-methylpiperidine-4-carbonyl)amino]-1,7-naphthyridin-4-yl]oxy]-2-pyridyl]-2-oxo-pyridine-3-carboxamide], the IC50 in assay [1] is 10 nM; in assay [2] it was 13 nM; in assay [4], 1 nM; in assay [5], 250 nM.

As for `CC(C)n1cc(C(=O)Nc2ccc(Oc3ccnc4cnc(C5CCN(C)CC5)cc34)cn2)c(=O)c(-c2ccc(F)cc2)c1` [Example 23, 5-(4-fluorophenyl)-1-isopropyl-N-[5-[[6-(1-methyl-4-piperidyl)-1,7-naphthyridin-4-yl]oxy]-2-pyridyl]-4-oxo-pyridine-3-carboxamide], the IC50 in assay [1] worked out at 12 nM; in assay [2], 2 nM; in assay [4], 3 nM; in assay [5], 429 nM.

Take `CC(C)n1cc(C(=O)Nc2ccc(Oc3ccnc4cnc(C(=O)N[C@H]5CCN(C)C5)cc34)cn2)c(=O)n(-c2ccc(F)cc2)c1=O` [Example 27.4, 4-[[6-[[3-(4-fluorophenyl)-1-isopropyl-2,4-dioxo-pyrimidine-5-carbonyl]amino]-3-pyridyl]oxy]-N-[(3S)-1-methylpyrrolidin-3-yl]-1,7-naphthyridine-6-carboxamide]: the IC50 is 44 nM in assay [2], 14 nM in assay [3], 14 nM in assay [4] and 377 nM in assay [5].
